From PubChem BioAssay (NCI)
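Cells were grown in 96-well plates and exposed to each compound for 48 hours at five concentrations; endpoints were interpolated linearly between bracketing concentrations, or set to the highest concentration if not reached. TGI: concentration producing complete growth inhibition.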

Tests used:
Experiment in all cases: NCI-60 cell line screen, 48 h
[1] = tested on: M14 melanoma
[2] = tested on: DMS 114 small cell lung
[3] = tested on: DMS 273 small cell lung
[4] = tested on: HOP-18 NSCLC
[5] = tested on: KM20L2 colon
[6] = tested on: LXFL 529 NSCLC
[7] = tested on: M19-MEL melanoma
[8] = tested on: SNB-78 CNS
[9] = tested on: XF 498 CNS
[10] = tested on: DLD-1 colon
[11] = tested on: RXF-631 renal

Compound: Nc1c(C(=O)c2ccccc2)nnc2ccccc12
- TGI [1]: > 100 µM

Compound: CC1=C2CC(C)(C)CC(=O)C2(C)CCC1=O (configuration not stated)
- TGI [1]: > 100 µM

Compound: Nc1ncnc2c1N=C(c1ccccc1)CC(c1ccccc1)N2 (configuration not stated)
- TGI [1]: > 100 µM

Compound: CC(=O)Nc1sccc1S(=O)(=O)c1ccc(Cl)cc1
- TGI [1]: > 100 µM

Compound: Cn1c(=O)n2n(c1=O)C(S(=O)c1ccccc1)C2 (configuration not stated)
- TGI [1]: > 100 µM

Compound: O[C@]12c3ccccc3C1CCCCC2N1CCOCC1 (some centres not stated)
- TGI [2]: > 100 µM
- TGI [3]: > 100 µM
- TGI [4]: > 100 µM
- TGI [5]: > 100 µM
- TGI [6]: > 100 µM
- TGI [1]: > 100 µM
- TGI [7]: > 100 µM
- TGI [8]: > 100 µM
- TGI [9]: > 100 µM

Compound: O=C1Nc2ccccc2C1S(=O)(=O)c1ccccc1 (configuration not stated)
- TGI [1]: > 100 µM

Compound: Cc1ccc(C=C(C(=O)O)C(=O)O)o1
- TGI [1]: > 100 µM

Compound: Cc1cc(/N=C/c2ccc(Cl)cc2)n(-c2ccccc2)n1
- TGI [1]: > 100 µM

Compound: O=C(O)Cn1ccc(=O)c2c([N+](=O)[O-])cccc21
- TGI [1]: > 100 µM

Compound: CCOP(=O)(/C=C\n1ccc(=O)[nH]c1=O)OCC
- TGI [1]: > 100 µM

Compound: Clc1ccc(Cn2cc(/C=N/n3cnnc3)c3ccccc32)cc1
- TGI [1]: > 100 µM

Compound: COc1cccc(-c2[nH]c3cc4c(cc3c(=O)c2C(=O)O)OCO4)c1
- TGI [1]: > 100 µM

Compound: CCCCC1Cc2cc(OC)ccc2-c2n1c1cc(OC)ccc1[n+]2C (configuration not stated) (tested in a mixture with another compound)
- TGI [1]: 25.7 µM

Compound: CCOc1cc2c(cc1O)CC[C@@H]1[C@@H]2CC[C@]2(C)[C@@H](O)CC[C@@H]12
- TGI [1]: 3.16 µM

Compound: CCOC(=O)C(C)(Cc1ccc(O)cn1)NC(=O)c1ccccc1 (configuration not stated)
- TGI [1]: > 100 µM

Compound: COCCOCCOCCC(=O)NC1CC2CCC1(C)C2(C)C (configuration not stated)
- TGI [1]: > 100 µM

Compound: CC(=O)O[C@H]1C[C@@H](OC(C)=O)[C@@](C)(O)[C@@H]2[C@@H](OC(C)=O)[C@@]3(O)[C@H](/C=C(/CCl)[C@H]4O[C@H]4[C@@H](OC(C)=O)[C@@]12C)OC(=O)[C@@H]3C
- TGI [1]: > 25 µM

Compound: COc1cccc2c1[C@H]1OC(=O)NC1CCCCC2 (some centres not stated)
- TGI [10]: > 100 µM
- TGI [2]: > 100 µM
- TGI [3]: > 100 µM
- TGI [4]: > 100 µM
- TGI [5]: > 100 µM
- TGI [6]: > 100 µM
- TGI [1]: > 100 µM
- TGI [7]: > 100 µM
- TGI [8]: > 100 µM

Compound: CCOC(=O)C1=C(C)N(CC(C)C)C2(O)C(OC)CC(=O)C3C(=O)N(c4ccccc4)C(=O)C132 (configuration not stated)
- TGI [1]: > 100 µM

Compound: CC(=O)O[C@H]1C[C@H]2[C@@H]([C@H](OC(C)=O)C[C@@H]3CC4(CC[C@@]32C)OOC2(CCCCC2)OO4)[C@@H]2CC[C@H]([C@H](C)CCC(=O)O)[C@@]12C
- TGI [1]: 26.9 µM

Compound: C=CC1(O)CCCC=C1COCc1ccccc1 (configuration not stated)
- TGI [1]: > 100 µM

Compound: C/C(CC(=O)Nc1cccc(Cl)c1C)=N\N=C(N)N
- TGI [10]: > 100 µM
- TGI [2]: > 100 µM
- TGI [3]: > 100 µM
- TGI [4]: > 100 µM
- TGI [5]: > 100 µM
- TGI [6]: > 100 µM
- TGI [1]: > 100 µM
- TGI [7]: > 100 µM
- TGI [8]: > 100 µM
- TGI [9]: > 100 µM

Compound: CC(=O)Oc1ccc(/C=C/C(=O)NCCOC(=O)/C=C/c2ccc(OC(C)=O)c(OC(C)=O)c2)cc1OC(C)=O
- TGI [1]: 74.5 µM

Compound: CC(=O)N1c2ccccc2[C@H]2CCc3c([nH]c4ccccc34)[C@H]21
- TGI [1]: 30.9 µM

Compound: Brc1ccc(-c2nc(-c3ccc(Br)cc3)n(-c3ccccc3)n2)cc1
- TGI [1]: > 100 µM

Compound: O=C1NC2=NN=C(c3ccc(Br)cc3)CN2NC12c1ccccc1-c1ccccc12
- TGI [1]: > 100 µM

Compound: COc1cc(S(=O)(=O)Nc2ccc(-c3csc(/N=C\c4cccs4)n3)cc2)ccc1Cl
- TGI [1]: > 100 µM

Compound: CC(=O)c1sc2c(c1O)c(=O)n(-c1ccccc1)c(=S)n2-c1ccccc1
- TGI [1]: > 100 µM

Compound: CSc1nc(C)cc(=O)n1C1OC(COC(C)=O)C(OC(C)=O)C(OC(C)=O)C1OC(C)=O (configuration not stated)
- TGI [10]: > 100 µM
- TGI [2]: > 100 µM
- TGI [3]: > 100 µM
- TGI [5]: > 100 µM
- TGI [6]: > 100 µM
- TGI [1]: > 100 µM
- TGI [7]: > 100 µM
- TGI [9]: > 100 µM

Compound: COC(=O)[C@]1(C)CCCC2(C)C3=C(CCC21)CC1(CC3)SCCS1 (some centres not stated)
- TGI [1]: > 10 µM

Compound: C1=C(c2ccccc2)C(OC2Oc3ccccc3C=C2c2ccccc2)Oc2ccccc21 (configuration not stated)
- TGI [10]: > 100 µM
- TGI [2]: > 100 µM
- TGI [3]: > 100 µM
- TGI [4]: > 100 µM
- TGI [5]: > 100 µM
- TGI [6]: > 100 µM
- TGI [1]: > 100 µM
- TGI [7]: > 100 µM
- TGI [11]: > 100 µM
- TGI [8]: > 100 µM
- TGI [9]: > 100 µM

Compound: COC(=O)C1(Cc2ccccc2)Cc2c(C)ccc(C)c2C1=O (configuration not stated)
- TGI [1]: 98.8 µM

Compound: O=C1CC(=O)NC(=NN2C(=O)/C(=C/c3ccc(Cl)cc3)N=C2c2ccccc2)N1
- TGI [1]: 29.3 µM

Compound: CCN(CCCl)c1cc(CN(C)C)cc(NC(=O)c2cc(C(=O)Nc3cc(CN(C)C)cc(N(CC)CCCl)c3)n(C)n2)c1
- TGI [1]: 2.01 µM

Compound: C=CCCCCCCCCC(=O)ON(Cc1ccc(O)c(OC)c1)C(=O)C(F)(F)F
- TGI [1]: > 100 µM

Compound: Cn1c(SCc2c[nH]c3ccccc23)nnc1-c1ccc(Cl)cc1Cl
- TGI [1]: 38.1 µM

Compound: O=C(O)c1ccccc1CC(Cc1ccccc1)C(=O)O (configuration not stated)
- TGI [1]: > 100 µM

Compound: N#C[C@H](C(=O)c1ccccc1F)c1nc2ccccc2[nH]1
- TGI [1]: > 100 µM

Compound: Cc1cc(NS(=O)(=O)c2ccc(NC(=O)c3ccc4nc5ccccc5c(Nc5ccc(S(=O)(=O)Nc6cc(C)on6)cc5)c4c3)cc2)no1
- TGI [1]: > 50 µM
